US9714213B2, “4-aminomethylbenzoic acid derivative” (TOA EIYO LTD., priority 2013, dated 2017)
Read-outs that look alike come from different tables or passages of the source.

Experiments:
rat ventral aorta = assay: Blood vessel relaxation activity, phenylephrine-contracted rat ventral aorta ring specimen; settings: relaxation of 1 μmol/L phenylephrine contraction; EC50 without ODQ / EC50 with 10 μmol/L ODQ
Description: A representative compound of the present invention was assayed for blood vessel relaxation activity according to the Test Example described below. In the assay, a rat (male, SD) was phlebotomized from the upper part of the heart under pentobarbital (30 mg/kg) anesthesia, and the ventral aorta was extracted. The connective tissue adhering around the blood vessel in the ventral aorta was removed in an ice-cooled Krebs-Henseleit solution (KH solution) (118 mmol/L sodium chloride, 4.7 mmol/L potassium chloride, 1.2 mmol/L magnesium sulfate, 1.2 mmol/L potassium dihydrogenphosphate, 25 mmol/L sodium hydrogen carbonate, 2.5 mmol/L calcium chloride and 10 mmol/L glucose, pH 7.4). Then, a ring specimen of 2 mm length was prepared, and fixed in 5 mL organ bath filled with the KH solution. The KH solution was maintained at 37° C., and a mixed gas of 95% O2 and 5% CO2 was ventilated. The specimen was stabilized with 1 g of the resting tension for 1 hour. In the meantime, the KH solution was exchanged twice. The tension of the specimen was recorded with a multichannel recorder through a pickup and an amplifier. After stabilization of the specimen, contraction was induced with 1 μmol/L phenylephrine (Phe), and cumulative administration of each compound (0.001, 0.01, 0.03, 0.1, 0.3, 1, 3, 10, 30, 100, 1000, 10000 nmol/L) was carried out. In the case of evaluation at the time of containing ODQ, 10 μmol/L ODQ was added 10 minutes before administration of Phe, and similar evaluation was performed.
EC50 value was calculated by Four-parameter Logistic Model with Assay Explorer (Accelrys, Inc.). Meanwhile, the solution of the test compound was prepared by dissolving the compound in DMSO to prepare solutions having the concentration of each test compound 1000 times higher than the final concentration.

human sGC = molecular target: T1, human sGC (Homo sapiens, UniProt Q02153); assay: Maximum effect of sGC activation (intracellular Ca2+, Fura2-AM) in CHO-K1 cells stably expressing human sGC and mouse CNGA2; assay type: cell-based; settings: increase rate of sGC activity vs DMSO control, test compound 10 μmol/L
T1 construct: expressed in transfected cells; host or cells: CHO-K1 (Chinese hamster ovary) cells
T1 sequence (Q02153 1-619): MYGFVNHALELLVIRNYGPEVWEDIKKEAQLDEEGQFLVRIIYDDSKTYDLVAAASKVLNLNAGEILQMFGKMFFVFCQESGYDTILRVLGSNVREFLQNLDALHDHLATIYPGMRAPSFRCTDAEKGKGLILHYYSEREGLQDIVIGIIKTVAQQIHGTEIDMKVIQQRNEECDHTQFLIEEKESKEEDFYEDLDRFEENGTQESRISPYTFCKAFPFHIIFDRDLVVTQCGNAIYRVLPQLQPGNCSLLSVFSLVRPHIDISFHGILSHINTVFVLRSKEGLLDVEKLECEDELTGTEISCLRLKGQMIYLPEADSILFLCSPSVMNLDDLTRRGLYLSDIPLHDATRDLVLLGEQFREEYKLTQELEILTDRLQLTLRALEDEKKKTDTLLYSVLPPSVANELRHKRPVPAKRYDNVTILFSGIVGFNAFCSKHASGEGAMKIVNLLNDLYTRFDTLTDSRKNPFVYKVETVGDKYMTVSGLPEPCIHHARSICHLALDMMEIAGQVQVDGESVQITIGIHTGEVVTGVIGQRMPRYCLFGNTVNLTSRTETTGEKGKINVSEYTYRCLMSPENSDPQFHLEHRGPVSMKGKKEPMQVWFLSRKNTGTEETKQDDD
T1 sequence (Q02108 1-690 partner): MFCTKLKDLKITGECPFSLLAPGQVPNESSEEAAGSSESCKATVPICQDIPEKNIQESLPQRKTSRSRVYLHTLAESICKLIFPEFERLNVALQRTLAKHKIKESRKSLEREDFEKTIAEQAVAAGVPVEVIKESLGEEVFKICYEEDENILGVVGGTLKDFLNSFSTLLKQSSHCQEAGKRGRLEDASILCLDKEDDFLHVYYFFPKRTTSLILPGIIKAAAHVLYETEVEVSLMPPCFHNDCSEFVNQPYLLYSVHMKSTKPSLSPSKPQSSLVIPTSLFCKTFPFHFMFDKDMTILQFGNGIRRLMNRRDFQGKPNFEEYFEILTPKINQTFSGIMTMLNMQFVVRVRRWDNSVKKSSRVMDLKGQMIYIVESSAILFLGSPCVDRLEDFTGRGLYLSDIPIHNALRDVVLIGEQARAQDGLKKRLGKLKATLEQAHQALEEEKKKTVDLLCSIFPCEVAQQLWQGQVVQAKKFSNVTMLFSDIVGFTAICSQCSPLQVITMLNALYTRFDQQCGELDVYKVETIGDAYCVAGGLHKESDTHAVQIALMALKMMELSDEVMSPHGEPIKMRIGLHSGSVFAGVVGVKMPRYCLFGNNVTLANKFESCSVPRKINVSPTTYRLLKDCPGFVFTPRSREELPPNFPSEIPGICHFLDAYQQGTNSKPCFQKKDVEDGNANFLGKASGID
Description: For the assay, chinese hamster ovary cells (CHO-K1 cells) stably expressing both α and β subunits of human sGC and mouse cyclic nucleotide-gated channel (CNGA2) were used.
The CHO-K1 cells stably expressing human sGC and mouse CNGA2 was cultured at 37° C. on F-12 medium containing 10% (v/v) fetal bovine serum (FBS), penicillin (100 U/mL), streptomycin (100 μg/mL), G418 (250 μg/mL) and Zeocin (250 μg/mL). The cells were suspended in a culture medium, seeded on a 96 well plate, and then cultured at 37° C. for 24 hours. The cells were washed with Assay buffer 1 (140 mmol/L sodium chloride, 5 mmol/L potassium chloride, 0.5 mmol/L magnesium chloride, 0.01 mmol/L calcium chloride, 10 mmol/L glucose, 0.4 mmol/L magnesium sulfate, 10 mmol/L 4-(2-hydroxyethyl)piperazin-1-ylethanesulfonic acid and 125 μmol/L sulfinpyrazone, pH 7.4), and then added a solution containing Fura2-AM, a fluorescent Ca^2+ indicator, in Assay buffer 1 at […] concentration thereto as an indicator solution, and cultured at 37° C. for 60 minutes. The culture medium was removed, and the cells were washed with Assay buffer 1, and then added a solution containing the test compound thereto, and cultured at room temperature for 10 minutes. A plate was placed onto a fluorometer (FlexStation II, Molecular Devices), and the intracellular calcium concentration was determined as the ratio of fluorescent intensity, obtained from measurement using 340 nm and 380 nm as excitation wavelength and 510 nm as detection wavelength.
The solution of the test compound was prepared by dissolving each test compound in DMSO at 10 mmol/L, and then diluting the solution for the test concentration at 10 μmol/L with Assay buffer (140 mmol/L sodium chloride, 5 mmol/L potassium chloride, 0.5 mmol/L magnesium chloride, 1 mmol/L calcium chloride, 10 mmol/L glucose, 0.4 mmol/L magnesium sulfate, 10 mmol/L 4-(2-hydroxyethyl)piperazin-1-ylethanesulfonic acid, […] sulfinpyrazone, 100 μmol/L isobutyl methyl xanthine, and 10 μmol/L 1H-[1,2,4]-oxadiazol[4,3-a]quinoxaline-1-one (hereinafter, ODQ), pH 7.4). The evaluation in the absence of ODQ was performed similarly, except that ODQ was not added to Assay buffer 2. As a control solution, a DMSO solution was used instead of the test compound solution.
The activity of the test compound defined as the increase rate of the sGC activity (%) at the time of adding the solution of the test compound with respect to the sGC activity at the time of adding the control solution, was calculated by dividing the fluorescent intensity ratio at the time of adding the test compound by the fluorescent intensity ratio of the control solution, and subtracting the sGC activity at the time of adding the control solution (100%).
If sGC is activated in this assay, intracellular cGMP concentration increases and accordingly intracellular Ca^2+ concentration is increased by opening of CNGA2. Accordingly, sGC activation can be measured as the change of Ca^2+ concentration in the cell. […] Accordingly, it is possible to evaluate maximum sGC activation effect including heme-dependent activation in the absence of ODQ, and also possible to evaluate heme independent sGC activation effect in the presence of ODQ.

[1] = 10 μmol/L ODQ present, read-out: Emax (%) ODQ+ (Heme-independent)
[2] = absence of ODQ, read-out: Emax (%) ODQ− (Heme-dependent)

EC50 Ratio (ODQ−/ODQ+) (rat ventral aorta) | Emax at 10 µM (human sGC; [1]) [%] | Emax at 10 µM (human sGC; [2]) [%] | Compound
– | 132 | 150 | O=C(O)CCCCN(Cc1ccc(C(=O)O)cc1)CC(OCc1ccc(CCc2ccccc2)s1)c1cccc(Cl)c1 (stereo not shown) [Example 24, 4-{[N-(4-Carboxybutyl)-N-[2-(3-chlorophenyl)-2-[5-(2-phenylethyl)thiophen-2-ylmethoxy]ethyl]amino]methyl}benzoic acid]
– | 108 | 161 | CC(C)(C)c1cc(CO[C@@H](CN(CCCCC(=O)O)Cc2ccc(C(=O)O)cc2)c2ccccc2)cc(C(C)(C)C)c1 [Example 46, (−)-4-{[N-(4-Carboxybutyl)-N-[(2R)-2-(3,5-di-tert-butylbenzyloxy)-2-phenylethyl]amino]methyl}benzoic acid]
– | 125 | 82.3 | CC(C)(C)c1cccc(CO[C@@H](CN(CCCCC(=O)O)Cc2ccc(C(=O)O)cc2)c2cccc(Cl)c2)c1 [Example 34, (−)-4-{[N-[(2R)-2-(3-tert-Butylbenzyloxy)-2-(3-chlorophenyl)ethyl]-N-(4-carboxybutyl)amino]methyl}benzoic acid]
12.4 | – | – | O=C(O)CCCCN(CCc1ccccc1OCc1ccc(CCc2ccccc2)cc1)Cc1ccc(C(=O)O)cc1 [Cinaciguat, reference compound]
– | 124 | 108 | O=C(O)CCCCN(Cc1ccc(C(=O)O)cc1)C[C@H](OCc1ccc(CCc2ccccc2)s1)c1ccccc1 [Example 43, (−)-4-{[N-(4-Carboxybutyl)-N-[(2R)-2-[5-(2-phenylethyl)thiophen-2-ylmethoxy]-2-phenylethyl]amino]methyl}benzoic acid]
– | 129 | 96.2 | CC(C)(CCN(Cc1ccc(C(=O)O)cc1)CC(OCc1ccc(CCc2ccccc2)cc1)c1ccccc1)CC(=O)O (stereo not shown) [Example 18]

The next lines start with the compound.

Compound | EC50 Ratio (ODQ−/ODQ+) (rat ventral aorta) | Emax at 10 µM (human sGC; [1]) [%] | Emax at 10 µM (human sGC; [2]) [%]
O=C(O)CCCCN(Cc1ccc(C(=O)O)cc1)C[C@H](OCc1ccc(CCc2ccccc2)cc1)c1ccccc1 [Example 32, (−)-4-{[N-(4-Carboxybutyl)-N-[(2R)-2-[4-(2-phenylethyl)benzyloxy]-2-phenylethyl]amino]methyl}benzoic acid] | 7.31 | 87.7 | 128
CC(C)(C)c1cccc(COC(CN(CCCCC(=O)O)Cc2ccc(C(=O)O)cc2)c2ccccc2)c1 (stereo not shown) [Example 10, 4-{[N-[2-(3-tert-Butylbenzyloxy)-2-phenylethyl]-N-(4-carboxybutyl)amino]methyl}benzoic acid] | – | 141 | 103
N#Cc1cccc([C@H](CN(CCCCC(=O)O)Cc2ccc(C(=O)O)cc2)OCc2ccc(CCc3ccccc3)cc2)c1 [Example 30, (−)-4-{[N-(4-Carboxybutyl)-N-[(2R)-2-(3-cyanophenyl)-2-[4-(2-phenylethyl)benzyloxy]ethyl]amino]methyl}benzoic acid] | – | 129 | 83.4
O=C(O)CCCCN(Cc1ccc(C(=O)O)cc1)C[C@H](OCc1ccc(CCC2CCCC2)cc1)c1ccccc1 [Example 39, (−)-4-{[N-(4-Carboxybutyl)-N-[(2R)-2-[4-(2-cyclopentylethyl)benzyloxy]-2-phenylethyl]amino]methyl}benzoic acid] | – | 142 | 148
O=C(O)CCCCN(Cc1ccc(C(=O)O)cc1)C[C@H](OCc1ccc(CCc2ccc(Cl)cc2)cc1)c1ccccc1 [Example 40, (−)-4-{[N-(4-Carboxybutyl)-N-[(2R)-2-[4-[2-(4-chlorophenyl)ethyl]benzyloxy]-2-phenylethyl]amino]methyl}benzoic acid] | – | 120 | 127
O=C(O)CCCCN(Cc1ccc(C(=O)O)cc1)CC(OCc1ccc(CCc2ccccc2)cc1)c1cccc(Cl)c1 (stereo not shown) [Example 22, 4-{[N-(4-Carboxybutyl)-N-[2-(3-chlorophenyl)-2-[4-(2-phenylethyl)benzyloxy]ethyl]amino]methyl}benzoic acid] | – | 115 | 106
O=C(O)CCCCCN(Cc1ccc(C(=O)O)cc1)CC(OCc1ccc(CCc2ccccc2)cc1)c1ccccc1 (stereo not shown) [Example 15, 4-{[N-(5-Carboxypentyl)-N-[2-[4-(2-phenylethyl)benzyloxy]-2-phenylethyl]amino]methyl}benzoic acid] | – | 87.7 | 89.1
O=C(O)CCCCN(Cc1ccc(C(=O)O)cc1)CC(OCc1cccc(CCc2ccccc2)c1)c1ccccc1 (stereo not shown) [Example 60, 4-{[N-(4-Carboxybutyl)-N-[2-[3-(2-phenylethyl)benzyloxy]-2-phenylethyl]amino]methyl}benzoic acid] | – | 88.9 | 110
